Assay results reported in patent US20110053892A1, “Imidazo[4,5-d]Pyridazine Compounds For Treating Viral Infections” (priority 2009, published 2011).

System: HCV Genotype 1B replicon cells
Type: cell-based
Conditions: Table 3; cytotoxicity, cell titer glo
Source text: The genotype 1a replicon contains several adaptive mutations (NS4B Q31H, NS5A K68R, NS5A S232I), the luciferase gene and encodes for neomycin resistance. The genotype 1b replicon, also referred to as the ET replicon, is stably transfected with RNA transcripts harboring a I389luc-ubi-neo/NS3-3′/ET replicon with firefly luciferase-ubiquitin-neomycin phosphotransferase fusion protein and EMCV-IRES driven NS3-5B polyprotein containing the cell culture adaptive mutations (E1202G; T1280I; K1846T) See, Kreiger, et al., Journal of Virology 75:4614-4624 (2001). Both cell lines were grown in DMEM, supplemented with 10% fetal calf serum, 2 mM Glutamine, Penicillin (100 IU/mL)/Streptomycin (100 μg/mL), 1× nonessential amino acids, and 250 μg/mL G418 (“Geneticin”). They were all available through Life Technologies (Bethesda, Md.). The cells were plated at 0.5×10^4 cells/well in 384 well plates containing compounds. The final concentration of compounds ranged between 0.1 nM to 50 μM and the final DMSO concentration of 0.5%.
Luciferase activity was measured 48 hours later by adding a Steady glo (Promega, Madison, Wis.). Percent inhibition of replication data was plotted relative to no compound control. Under the same condition, cytotoxicity of the compounds was determined using cell titer glo (Promega, Madison, Wis.). EC50 values were determined from a 10 point dose response curve using 2-4 fold serial dilutions for each compound, which spans a concentration range of at least a 1000 fold. Replicon EC50 values, the concentration of compound required to inhibit 50% of the assay response, were calculated by curve fitting data to the Hill equation, using a non-linear least-squares curve-fitting program. The software tested the data for quality and rejected compounds with high and low activity before fitting the equation below.

SMILES | CC50 [µM]
O=C(OCCOCCO)C(c1cc(-c2ccc(C3CC3)cc2C(F)(F)F)no1)n1cc2nc(-c3cccc(F)c3F)nc-2cn1 (stereo not shown) [Compound 179, 2-[(2-hydroxyethyl)oxy]ethyl {3-[4-cyclopropyl-2-(trifluoromethyl)phenyl]-5-isoxazolyl}[2-(2,3-difluorophenyl)-5H-imidazo[4,5-d]pyridazin-5-yl]acetate] | 50
CCCOC(=O)C(c1cc(-c2ccc(C3CC3)cc2C(F)(F)F)no1)n1cc2nc(-c3cccc(F)c3F)nc-2cn1 (stereo not shown) [Compound 184, Propyl {3-[4-cyclopropyl-2-(trifluoromethyl)phenyl]-5-isoxazolyl}[2-(2,3-difluorophenyl)-5H-imidazo[4,5-d]pyridazin-5-yl]acetate] | 25
COC(=O)C(c1cc(-c2ccc(C3CC3)cc2C(F)(F)F)no1)n1cc2nc(-c3cccc(F)c3F)nc-2cn1 (stereo not shown) [Compound 178, Methyl {3-[4-cyclopropyl-2-(trifluoromethyl)phenyl]-5-isoxazolyl}[2-(2,3-difluorophenyl)-5H-imidazo[4,5-d]pyridazin-5-yl]acetate] | 25
O=C(OCCCO)C(c1cc(-c2ccc(C3CC3)cc2C(F)(F)F)no1)n1cc2nc(-c3cccc(F)c3F)nc-2cn1 (stereo not shown) [Compound 182, 3-Hydroxypropyl {3-[4-cyclopropyl-2-(trifluoromethyl)phenyl]-5-isoxazolyl}[2-(2,3-difluorophenyl)-5H-imidazo[4,5-d]pyridazin-5-yl]acetate] | > 50
